Measurements as given in ChEMBL document CHEMBL3784954, “In vitro and in silico PTP-1B inhibition and in vivo antidiabetic activity of semisynthetic moronic acid derivatives” (Bioorg Med Chem Lett, 2016).
Active and inactive are the calls of the source. No cut-off for these calls is given here.

What was measured:
[1] = target: T1, Tyrosine-protein phosphatase non-receptor type 1 (Homo sapiens) (UniProt P18031); test: Inhibition of recombinant human PTP-1B expressed in Escherichia coli TB1 at 50 uM using p-nitrophenyl phosphate as substrate
T1 sequence (whole entry): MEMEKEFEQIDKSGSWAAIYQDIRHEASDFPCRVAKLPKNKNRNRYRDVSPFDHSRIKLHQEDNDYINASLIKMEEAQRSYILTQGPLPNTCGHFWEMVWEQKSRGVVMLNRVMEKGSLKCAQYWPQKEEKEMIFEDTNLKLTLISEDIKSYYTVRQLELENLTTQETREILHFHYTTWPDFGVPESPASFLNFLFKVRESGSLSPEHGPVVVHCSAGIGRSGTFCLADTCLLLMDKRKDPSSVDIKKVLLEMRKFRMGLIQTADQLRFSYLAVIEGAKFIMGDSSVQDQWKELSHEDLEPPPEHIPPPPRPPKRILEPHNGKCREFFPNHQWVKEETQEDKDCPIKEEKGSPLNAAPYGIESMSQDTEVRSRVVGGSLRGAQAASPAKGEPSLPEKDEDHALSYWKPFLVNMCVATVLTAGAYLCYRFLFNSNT

[2] = Solubility of compound in DMSO; format: physicochemical
[3] = target: T2, Tyrosine-protein phosphatase non-receptor type 1 (Homo sapiens, UniProt P18031); test: Inhibition of recombinant human PTP-1B expressed in Escherichia coli TB1 using p-nitrophenyl phosphate as substrate
T2 sequence (P18031 whole entry): T1 sequence (whole entry)

[4] = target: T3, Low molecular weight phosphotyrosine protein phosphatase (Homo sapiens, UniProt P24666); test: Inhibition of recombinant human LMW-PTP isoform 2 expressed in Escherichia coli TB1
T3 sequence (P24666 whole entry): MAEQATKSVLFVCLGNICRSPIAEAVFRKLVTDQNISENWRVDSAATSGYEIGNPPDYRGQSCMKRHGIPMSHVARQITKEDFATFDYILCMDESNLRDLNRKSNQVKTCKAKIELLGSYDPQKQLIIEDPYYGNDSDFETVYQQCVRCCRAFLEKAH

[5] = species on record: Homo sapiens; test: Selectivity ratio of IC50 for recombinant human LMW-PTP isoform 1expressed in Escherichia coli TB1 to IC50 for recombinant human PTP-1B expressed in Escherichia coli TB1
[6] = target: T1, Tyrosine-protein phosphatase non-receptor type 1 (Homo sapiens); test: Partial reversible inhibition of recombinant human PTP-1B expressed in Escherichia coli TB1 at 10 times IC50 using p-nitrophenyl phosphate as substrate preincubated for 90 mins followed by 400 fold dilution
[7] = target: T3, Low molecular weight phosphotyrosine protein phosphatase; test: Inhibition of recombinant human LMW-PTP isoform 1 expressed in Escherichia coli TB1
[8] = species on record: Homo sapiens; test: Selectivity ratio of IC50 for recombinant human LMW-PTP isoform 2 expressed in Escherichia coli TB1 to IC50 for recombinant human PTP-1B expressed in Escherichia coli TB1
[9] = target: T4, Tyrosine-protein phosphatase non-receptor type 2 (Homo sapiens, UniProt P17706); test: Inhibition of recombinant human TC-PTP expressed in Escherichia coli TB1
T4 sequence (P17706 whole entry): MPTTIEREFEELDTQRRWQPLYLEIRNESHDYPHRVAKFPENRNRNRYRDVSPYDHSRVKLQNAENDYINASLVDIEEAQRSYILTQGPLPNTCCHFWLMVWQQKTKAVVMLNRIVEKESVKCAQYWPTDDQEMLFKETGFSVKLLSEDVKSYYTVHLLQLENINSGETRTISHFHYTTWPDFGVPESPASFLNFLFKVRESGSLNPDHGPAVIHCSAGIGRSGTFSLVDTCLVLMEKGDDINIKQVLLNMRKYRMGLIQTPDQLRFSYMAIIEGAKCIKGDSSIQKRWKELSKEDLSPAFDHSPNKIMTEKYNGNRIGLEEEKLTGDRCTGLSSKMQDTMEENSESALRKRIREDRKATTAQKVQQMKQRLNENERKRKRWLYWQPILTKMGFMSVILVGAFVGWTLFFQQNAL

[10] = test system: Rattus norvegicus; test: Antidiabetic activity in non insulin dependent streptozotocin/nicotinamide-induced diabetic Wistar rat model assessed as decrease in blood glucose levels at 50 mg/kg, ig administered as single dose measured after 3 hrs by glucometer; format: functional, organism-based
[11] = test system: Rattus norvegicus; test: Antidiabetic activity in non insulin dependent streptozotocin/nicotinamide-induced diabetic Wistar rat model assessed as decrease in blood glucose levels at 50 mg/kg, ig administered as single dose measured after 7 hrs by glucometer; format: functional; parameters: scale not given: the % may be the effect or the level left
[12] = target: T2, Tyrosine-protein phosphatase non-receptor type 1; test: Competitive inhibition of recombinant human PTP-1B expressed in Escherichia coli TB1 using p-nitrophenyl phosphate as substrate by Lineweaver-Burk plot analysis
[13] = target: T1, Tyrosine-protein phosphatase non-receptor type 1 (Homo sapiens); test: Reversible inhibition of recombinant human PTP-1B expressed in Escherichia coli TB1 at 10 times IC50 using p-nitrophenyl phosphate as substrate preincubated for 90 mins followed by 400 fold dilution

inhibition [1]	IC50 [3] [µM]	IC50 [4] [µM]	IC50 [7] [µM]	IC50 [9] [µM]	Compound	other results
Active					CC1(C)CC[C@]2(O)CC[C@]3(C)[C@H](CC[C@@H]4[C@@]5(C)CCC(=O)OC(C)(C)[C@@H]5CC[C@]43C)C23OC13 (stereo partly specified)	
Active					CCOC(=O)[C@]12CCC(C)(C)C=C1[C@H]1CC[C@@H]3[C@@]4(C)CCC(=O)C(C)(C)[C@@H]4CC[C@@]3(C)[C@]1(C)CC2	

The remaining lines, values behind:

Compound	inhibition [1]	IC50 [3] [µM]	IC50 [4] [µM]	IC50 [7] [µM]	IC50 [9] [µM]	other results
CC1(C)C=C2[C@H]3CC[C@@H]4[C@@]5(C)CCC6(OCCO6)C(C)(C)[C@@H]5CC[C@@]4(C)[C@]3(C)CC[C@@]2(CO)CC1	100%	7.5	29.3	16.1	> 100	solubility [2]: soluble; Ratio IC50 [5]: 2; inhibition [6]: Active; Ratio IC50 [8]: 4
CC1(C)C=C2[C@H]3CC[C@@H]4[C@@]5(C)CCC(=O)C(C)(C)[C@@H]5CC[C@@]4(C)[C@]3(C)CC[C@@]2(C(=O)NC2CCCCC2)CC1	Active					
COC(=O)[C@]12CCC(C)(C)C=C1[C@H]1CC[C@@H]3[C@@]4(C)CCC(=O)C(C)(C)[C@@H]4CC[C@@]3(C)[C@]1(C)CC2	100%	10.8	62.5	33.7	> 100	Activity [10]: Active; Activity [11]: 40%; Ki [12]: 3.1 µM; inhibition [13]: Active
